{"source": "patent US20110054025A1", "about": "“USE OF A PENTACYCLIC TRITERPENE IN A PHARMACEUTICAL COMPOSITION FOR THE TREATMENT OF MULTIPLE SCLEROSIS” (CONSEJO SUPERIOR DE INVESTIGACIONES CIENTIFICAS, priority 2008, published 2011)", "format_in_all_cases": "in vivo, C57BL/6 mice", "key": {"Osteopontin": {"test_system": "Osteopontin", "experiment": "Osteopontin in CNS tissues of EAE mice by ELISA", "settings": "spinal cord, brain and cerebellum, day 21 post-immunization, vs EAE mice", "procedure": "Animals of the different experimental groups were sacrificed at day 21 post-immunization and CNS protein extracts (cerebral cortex, cerebellum and spinal cord) were prepared by homogenization in a solution: 0.4 M NaCl, 0.05% Tween 20, 0.5% BSA, 0.1 mM phenylmethylsulfonyl fluoride, 0.1 mM benzetonium chloride, 10 mM EDTA and 20 KI aprotinin (100 mg tissue/ml). The homogenate was centrifuged at 10,000 rpm for 10 min at 4° C. The concentration of osteopontin was determined in the supernatants by a commercial ELISA kit."}, "[1]": {"test_system": "leukocyte rolling and adhesion on brain microvasculature", "experiment": "Intravital fluorescence microscopy of leukocyte-endothelium interactions in brain microvasculature of EAE mice", "settings": "vs untreated EAE group", "procedure": "Intravital microscopy techniques allow the study of leukocyte-endothelium interactions. […] To make a precise study of leukocyte-endothelium interactions, we first made a record of the venule for one minute using a camcorder, and in a second time, a more detailed analysis was performed. The parameters of interest were the number of leukocytes adhering to the venular endothelium (number of leukocytes stationary for more than 30 seconds), and the number of rolling leukocytes (number of white cells per minute moving at a velocity less than that of erythrocytes).\nThe craniotomy was performed on the parietal zone. Animals received i.v. administration of rhodamine 6G (0.3 mg/kg body weight) to fix leucocytes. The fluorescence associated to rhodamine 6G was visualized at 510-560 nm by epi-ilumination. The microscope (20×) was used for observing micro-circulating events in brain."}, "[2]": {"test_system": "experimental autoimmune encephalomyelitis (EAE) mice", "experiment": "Experimental autoimmune encephalomyelitis (EAE) in mice: clinical score, body weight, survival", "procedure": "In the experiments we used fifteen animals per group. EAE was induced as described (Slavin A. Autoimmunity 1998, 28: 109) in C57BL mice by […]. The immunization was carried out with 100 μg of a partial peptide of myelin/oligodendrocyte glycoprotein ([…]) in complete Freund's adjuvant containing 4 mg of Mycobacterium tuberculosis H37Ra in 1 ml. The mice were immunized by subcutaneous injection of this emulsion on day 0. In addition, on day 0 and 2, were administered intraperitoneally 300 ng/200 μl of Bordetella pertussis toxin. The administration of 6 mg/kg of oleanolic acid was performed intraperitoneally once a day, beginning:\n1.—12 days after induction of EAE, when clinical symptoms were detected, until the end of the experiment (21 days after induction) (OA1), and\n2.—after 7 days of induction of EAE, before the onset of the disease, until the end of the experiment (21 days after induction) (OA2).\nMice were examined, weighed and scored daily in a double-blind manner for signs of EAE. OA-treated EAE mice were compared with a group of EAE animals treated with placebo, with untreated control animals or control animals received the same daily dose oleanolic acid. In addition, a pathologic evaluation was performed to confirm the effect of improving the state of the disease. The weight of the mice in each group is represented in FIGS. 1 A and 2 A. The level of paralysis reached by each group of mice is shown in FIGS. 1 B and 2 B.\nThe effect of disease improvement (clinical effect) by the action of oleanolic acid is scored and evaluated with the pattern presented below.\nGrade 0.5, partial loss/reduced tail tone, assessed by inability to curl the distal end of the tail (Tail 50% or ⅔).\nGrade 1.0, tail atony 100%\nGrade 1.5, slightly/moderately clumsy gait, impaired righting ability, or combination.\nGrade 2.0, hind limb weakness, partial (1 or 2)\nGrade 2.5, partial (1 or 2) hind limb paralysis.\nGrade 3, complete hind limb paralysis.\nGrade 3.5, limb weakness.\nGrade 4, tetraplegic. Complete limb paralysis\nGrade 5, moribund state or death.\nChronic progressive EAE disease was induced in adult 8-10-wk-old female C57BL/J6 mice following the protocol described by (Slavin A. Autoimmunity 1998, 28:109-20). Mice were injected in the tail base bilaterally with an innoculum containing 100 μg of MOG peptide 35-55 emulsified in complete Freund's adjuvant containing 0.4 mg/ml Mycobacterium tuberculosis H37 RA. Then, i.p. injection 300 ng/animal of B. pertussis toxin was administered by two times with an interval of 48 hours. Mice were examined daily to monitor weight loss and the onset of neurological symptoms"}, "[3]": {"test_system": "blood-brain barrier permeability", "experiment": "Evans blue extravasation (blood-brain barrier permeability) in CNS tissues of EAE mice", "settings": "spinal cord, brain and cerebellum, vs untreated EAE animals", "procedure": "Evans blue dye is able to bind quantitatively to albumin, both in vivo and in vitro. This property has been widely used for quantification of protein extravasation as an index of increased vascular permeability and, indirectly, of tissue damage. The Evans Blue, once extravasated into the tissues, is removed from them, and then quantified by visible spectrophotometry.\nMice from all experimental groups were given 30 mg/kg of Evans Blue i.p. Then, the spinal cord, cerebrum and cerebellum was removed and washed in saline. The dye was extracted from the CNS tissues with formamide and the concentration was determined by measuring the absorvance at 620 nm. CNS tissue was dried 24 h at 60° C. and weighed. The extravasated dye was expressed as μg of Evans Blue/mg dried weight of the tissue."}}, "note": "“Also recorded” adds a separate entry of the source.", "data": [{"smiles": "CC1(C)CC[C@]2(C(=O)O)CC[C@]3(C)C(=CCC4[C@@]5(C)CC[C@H](O)C(C)(C)C5CC[C@]43C)C2C1", "note": "(stereo partly drawn) [oleanolic acid, 3β-hydroxyolean-12-en-28-oic acid]", "values": [{"measurement": "Osteopontin expression in CNS tissues", "setting": "Osteopontin; protocol OA1", "result": "significantly reduced"}, {"measurement": "Osteopontin expression in CNS tissues", "setting": "Osteopontin; second protocol (printed OA1, FIG. 5: EAE+OA2)", "result": "significantly reduced"}, {"measurement": "flow of leukocytes rolling on the endothelium", "setting": "[1]; protocol EAE+OA1", "result": "significant decrease"}, {"measurement": "leukocytes adhering to the endothelium", "setting": "[1]; protocol EAE+OA1", "result": "significant decrease"}, {"measurement": "flow of leukocytes rolling on the endothelium", "setting": "[1]; protocol EAE+OA2", "result": "significant decrease"}, {"measurement": "leukocytes adhering to the endothelium", "setting": "[1]; protocol EAE+OA2", "result": "significant decrease"}, {"measurement": "clinical status / severity of the disease (signs of paralysis score)", "setting": "[2]; OA1: 6 mg/kg ip daily from day 12 after induction (onset of clinical symptoms) to day 21, vs untreated EAE mice", "result": "decreases the severity of the disease; also recorded: significant improvement in clinical status of the disease"}, {"measurement": "body weight", "setting": "[2]; OA1: 6 mg/kg ip daily from onset of symptoms, recovery effect (FIG. 1A)", "result": "reduction of body weight was suppressed"}, {"measurement": "body weight", "setting": "[2]; OA2: 6 mg/kg ip daily from day 7, preventive effect (FIG. 2A)", "result": "reduction of body weight was suppressed"}, {"measurement": "onset of the disease", "setting": "[2]; OA2: prophylactic, 6 mg/kg ip daily from day 7 after induction to day 21, 6 mg/kg", "result": "delays the onset of EAE; also recorded: delay in the onset of the disease"}, {"measurement": "severity of EAE (clinical signs)", "setting": "[2]; OA2: prophylactic, 6 mg/kg ip daily from day 7 after induction to day 21, vs untreated EAE mice", "result": "significantly attenuated"}, {"measurement": "survival (time until animals die)", "setting": "[2]; oleanolic acid given at the onset of symptoms, placebo-treated EAE mice die within first 40 days", "result": "≥ 60", "unit": "days post-induction"}, {"measurement": "Evans blue leakage in CNS tissues (vascular permeability)", "setting": "[3]; protocol EAE+OA1", "result": "significantly reduced leakage"}, {"measurement": "Evans blue leakage in CNS tissues (vascular permeability)", "setting": "[3]; protocol EAE+OA2", "result": "significantly reduced leakage"}]}]}
